From paper PMC12444508, “Mechanistic Insights into the Anticancer Action of Novel 2‑Hydroxy-1,4-naphthoquinone Thiol Derivatives” (ACS Omega, 2025)

Key:
[1] = Hemolysis assay; type: cell-based, human; details: human, human erythrocytes, Triton X-100 positive control, read-out: % Hemolysis (Mean ± SD)
Description: To determine the surfactant power of the substances present in biological membranes, a hemolysis test was carried out with human blood approved by the Research Ethics Committee of the Universidade Federal Fluminense (CAAE: 43134721.4.0000.5626). Erythrocytes were collected for centrifugation at 1500 rpm for 15 min, washed with PBS (phosphate-buffered saline) supplemented with 10 mM glucose, and counted in an automatic cell counter (Thermo Fisher, Waltham, MA, USA). […] In total, 10 μL of PBS was used as a negative control, and 10 μL of PBS with 0.1% Triton x 100 was used as a positive control. Data reading was performed with EPOCH (BioTek Instruments, Winooski, VT, USA) at an absorbance of 540 nm, and statistical data were generated using […] Prism 8.4.3.0 program (Intuitive Software for Science, San Diego, CA, USA).

[2] = test system: SCC-9 cells; assay: Reactive oxygen species production (ROS-Glo H2O2); type: cell-based, human; details: 2 × IC50, 24, 48 and 72 h, menadione positive control
Description: The assay was performed in SCC-9 cells as previously described. […] Menadione (M9529, Sigma-Aldrich Corporation, San Luis, Mo., USA), at a concentration of 20 μM, served as a positive control, while DMSO, at equivalent concentrations to the test substances, served as the negative control. Cells were then incubated at 37 °C with 5% CO2 for the indicated time, and ROS was measured by ROS-Glo H2O2 Assay G8820 (Promega Corporation, Madison, WI 53711 USA) as indicated by the vendor. The luminescence signal was measured using a luminescence detector, Luminometer TD-20/20 (Turner Designs Instrument, Sunnyvale, CA, USA).

[3] = test system: SCC-9 cells; assay: Cell migration (wound healing) assay; type: cell-based, human; details: 1/8 of IC50, 72 h, SCC-9, mitomycin C
Description: To evaluate the inhibitory capacity of cell migration by substances 7a and 7e, 2 × 10^5 cells of the SCC-9 lineage were plated in a 35 mm Petri dish containing 2.0 mL of supplemented DMEN/F-12 medium and incubated at 37 °C with 5% CO2 until they reached at least ∼100% confluence. After this time, the metabolized medium was removed, and the cells were washed once with PBS and fresh medium (2.0 mL) treated with mitomycin C (MMC), 1-amino-9a-metoxi-7-metil-4,7,9,9a-tetra-hidro-3H-furo[3,4:6,7]-nafto[1,2-d]-imidazole-2(1H)-ona (Sigma-Aldrich Corporation, San Luis, Missouri, USA) at a concentration of 0.5 mg/mL, in a volume of 0.5 μL/mL, and returned to the incubator for 2 h. At the end of the time, scratch wounds were created on the cell monolayer by using a 200 μL capacity tip. […] The plate containing the cells was inserted into a chamber adapted to a Leica DMi1 inverted optical microscope (Leica Microsystems, Wetzlar, Germany) under controlled conditions of CO2 (5%) and temperature (37 °C). Phase contrast images in timelapse footage at 20× magnification for 72 h were captured every 2 min and 24 s. Measurements between the captured margins were collected using ImageJ analysis software (National Institute of Health, USA). […] The percentage of wound closure at each subsequent time is calculated in relation to the initial distance (time: 0 h).

[4] = test system: C57BL/6 mice; assay: In vivo acute toxicity study; details: single intraperitoneal dose 100, 200 and 400 mg/kg, 14 days
Description: . All experiments were carried out in accordance with Brazilian guidelines and regulations. Dosing and analysis were performed in accordance with 423 OECD guidelines and reviewed by. Each group of animals had n = 3 and received only one intraperitoneal injection (Day 0) of compounds 7a and 7e dissolved in […] of PBS and 3% DMSO. Animals in the control group received only 3% DMSO in PBS. The first dose of the compound was 100 mg/kg. Subsequent dose levels (200 mg/kg and 400 mg/kg) were determined based on the result obtained from the previous dose. Animals were examined daily, twice a day, for mortality and morbidity for 14 days, when all animals were anesthetized (ketamine 100 mg/kg and xylazine 10 mg/kg) followed by cervical dislocation. Macroscopic necropsy of the main organs was performed. The animals’ body weight and average food consumption were measured every 7 days. As an indicator of morbidity, the following signs were evaluated: tremors, seizure, salivation, diarrhea, and lethargy, along with the signs of pain, increased back arching, and mobility disability. The necropsy included examination of the external characteristics of the carcass; external orifices of the body; the abdominal, thoracic, and cranial cavities; and organs/tissues of the liver, thymus, right kidney, right testicle, heart, and lung.

Structure (SMILES) | hemolysis at 500 µM [1] [%] | ROS production [2] | wound closure [3] [%] | abdominal cavity and macroscopic organs at necropsy [4] | body weight and food consumption vs control animals [4]
COc1ccc(SC2C3=C(OC(C)(C)C2Sc2ccc(OC)cc2)C(=O)c2ccccc2C3=O)cc1 (stereo not shown) [7e, 3,4-Bis((4-methoxyphenyl)thio)-2,2-dimethyl-3,4-dihydro-2H-benzo[g]chromene-5,10-dione] | < 2 | induced the generation of ROS | 54.7 | no morphological changes or lesions | no significant difference
CC1(C)OC2=C(C(=O)c3ccccc3C2=O)C(Sc2ccccc2)C1Sc1ccccc1 (stereo not shown) [7a, 2,2-Dimethyl-3,4-bis(phenylthio)-3,4-dihydro-2H-benzo[g]chromene-5,10-dione] | < 2 | induced the generation of ROS | 28.4 | no morphological changes or lesions | no significant difference
